System: K98450-129-R-PDC complex spheroid growth, percent test/control
Experiment: Anticancer human tumor K98450-129-R-PDC patient-derived colon adenocarcinoma cell line growth inhibition [RAS]
Settings: for IC50: curve of first compound; for viability, T/C: stronger effect = lower value; active = viability on the fitted dose curve at most 10% of control; inactive = the rest
Method in brief: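 Tumour cells grown as complex spheroids with HUVEC endothelial cells and mesenchymal stem cells, treated with RAS pathway inhibitor combinations. Each agent spans half-log steps from near clinical Cmax, or 10 microM where Cmax is unknown.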

[1] = second compound 0.000949 µM, first compound 0.0316 µM
[2] = second compound 0.000949 µM, first compound 0.1 µM
[3] = second compound 0.000949 µM, first compound 0.316 µM
[4] = second compound 0.000949 µM, first compound 1 µM
[5] = second compound 0.000949 µM, first compound 3.16 µM
[6] = second compound 0.000949 µM, first compound 10 µM
[7] = second compound 0.003 µM, first compound 0.0316 µM
[8] = second compound 0.003 µM, first compound 0.1 µM
[9] = second compound 0.003 µM, first compound 0.316 µM
[10] = second compound 0.003 µM, first compound 1 µM
[11] = second compound 0.003 µM, first compound 3.16 µM
[12] = second compound 0.003 µM, first compound 10 µM
[13] = second compound 0.00949 µM, first compound 0.0316 µM
[14] = second compound 0.00949 µM, first compound 0.1 µM
[15] = second compound 0.00949 µM, first compound 0.316 µM
[16] = second compound 0.00949 µM, first compound 1 µM
[17] = second compound 0.00949 µM, first compound 3.16 µM
[18] = second compound 0.00949 µM, first compound 10 µM
[19] = second compound 0.03 µM, first compound 0.0316 µM
[20] = second compound 0.03 µM, first compound 0.1 µM
[21] = second compound 0.03 µM, first compound 0.316 µM
[22] = second compound 0.03 µM, first compound 1 µM
[23] = second compound 0.03 µM, first compound 3.16 µM
[24] = second compound 0.03 µM, first compound 10 µM
[25] = second compound 0.0949 µM, first compound 0.0316 µM
[26] = second compound 0.0949 µM, first compound 0.1 µM
[27] = second compound 0.0949 µM, first compound 0.316 µM
[28] = second compound 0.0949 µM, first compound 1 µM
[29] = second compound 0.0949 µM, first compound 3.16 µM
[30] = second compound 0.0949 µM, first compound 10 µM
[31] = second compound 0.3 µM, first compound 0.0316 µM
[32] = second compound 0.3 µM, first compound 0.1 µM
[33] = second compound 0.3 µM, first compound 0.316 µM
[34] = second compound 0.3 µM, first compound 1 µM
[35] = second compound 0.3 µM, first compound 3.16 µM
[36] = second compound 0.3 µM, first compound 10 µM
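Note: spheroids exposed to agents for seven days before the viability readout.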
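Throughout, for viability, T/C: luminescence used as a proxy for viable cell amount.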

CCC(CC)c1cc(NC2CCC(N)C2)n2nccc2n1 (stereo unspecified) + CCn1c(-c2cc(N3CCN(C)CC3)cnc2C(C)OC)c2c3cc(ccc31)-c1csc(n1)CC(NC(=O)C1CC1C)C(=O)N1CCCC(N1)C(=O)OCC(C)(C)C2
inactive: viability, T/C [1] 97.9% | viability, T/C [2] 88% | viability, T/C [3] 95.7% | viability, T/C [4] 65.1% | viability, T/C [5] 68.5% | viability, T/C [6] 16.4% | viability, T/C [7] 91.7% | viability, T/C [8] 83.2% | viability, T/C [9] 75.7% | viability, T/C [10] 66.3% | viability, T/C [11] 63.3% | viability, T/C [12] 13.3% | viability, T/C [13] 81.2% | viability, T/C [14] 60.9% | viability, T/C [15] 61% | viability, T/C [16] 62.7% | viability, T/C [17] 48.6% | viability, T/C [18] 12.9% | viability, T/C [19] 57.4% | viability, T/C [20] 44.2% | viability, T/C [21] 51.2% | viability, T/C [22] 49.9% | viability, T/C [23] 18.6% | viability, T/C [24] 12.2% | viability, T/C [25] 23.2% | viability, T/C [26] 20.8% | viability, T/C [27] 20.7% | viability, T/C [28] 17% | viability, T/C [29] 5.39% | viability, T/C [31] 12.3% | viability, T/C [32] 13% | viability, T/C [33] 11.2% | viability, T/C [34] 11.6%
3690 nM: IC50 (second compound 0.003 µM)
< 31.6 nM: IC50 (second compound 0.0949 µM) | IC50 (second compound 0.3 µM)
2350 nM: IC50 (second compound 0.00949 µM)
4120 nM: IC50 (second compound 0.000949 µM)
active: viability, T/C [30] 10.7% | viability, T/C [35] 3.99% | viability, T/C [36] 12.9%
887 nM: IC50 (second compound 0.03 µM)

CC1(O)CCCC1n1c(=O)c(C(F)F)cc2cnc(NC3CCN(S(C)(=O)=O)CC3)nc21 (stereo unspecified) + CCn1c(-c2cc(N3CCN(C)CC3)cnc2C(C)OC)c2c3cc(ccc31)-c1csc(n1)CC(NC(=O)C1CC1C)C(=O)N1CCCC(N1)C(=O)OCC(C)(C)C2
> 10000 nM: IC50 (second compound 0.000949 µM) | IC50 (second compound 0.003 µM)
inactive: viability, T/C [1] 97.3% | viability, T/C [2] 94.3% | viability, T/C [3] 95.8% | viability, T/C [4] 72% | viability, T/C [5] 72.1% | viability, T/C [6] 78.4% | viability, T/C [7] 81.7% | viability, T/C [8] 78.6% | viability, T/C [9] 60.3% | viability, T/C [10] 74.2% | viability, T/C [11] 68.3% | viability, T/C [12] 71% | viability, T/C [13] 77.1% | viability, T/C [14] 69.8% | viability, T/C [15] 60.5% | viability, T/C [16] 50.9% | viability, T/C [17] 50.5% | viability, T/C [18] 47.8% | viability, T/C [19] 47.9% | viability, T/C [20] 46.9% | viability, T/C [21] 48.4% | viability, T/C [22] 36.6% | viability, T/C [23] 35.4% | viability, T/C [24] 28.2% | viability, T/C [25] 22.6% | viability, T/C [26] 22.1% | viability, T/C [27] 18.2% | viability, T/C [28] 17.9% | viability, T/C [29] 21% | viability, T/C [30] 17.7% | viability, T/C [31] 11.4% | viability, T/C [32] 11.9% | viability, T/C [33] 12.3% | viability, T/C [34] 13.8% | viability, T/C [35] 12.7% | viability, T/C [36] 11.8%
2340 nM: IC50 (second compound 0.00949 µM)
< 31.6 nM: IC50 (second compound 0.03 µM) | IC50 (second compound 0.0949 µM) | IC50 (second compound 0.3 µM)

CCN1CCN(Cc2ccc(Nc3ncc(F)c(-c4cc(F)c5nc(C)n(C(C)C)c5c4)n3)nc2)CC1 + C#Cc1c(F)ccc2cc(O)cc(-c3ncc4c(N5CC6CCC(C5)N6)nc(OCC56CCCN5CC(F)C6)nc4c3F)c12
inactive: viability, T/C (second compound 0.0316 µM, first compound 0.00316 µM) 110% | viability, T/C (second compound 0.0316 µM, first compound 0.01 µM) 105% | viability, T/C (second compound 0.0316 µM, first compound 0.0316 µM) 99% | viability, T/C (second compound 0.0316 µM, first compound 0.1 µM) 92.4% | viability, T/C (second compound 0.0316 µM, first compound 0.316 µM) 72.2% | viability, T/C (second compound 0.0316 µM, first compound 1 µM) 74.4% | viability, T/C (second compound 0.1 µM, first compound 0.00316 µM) 109% | viability, T/C (second compound 0.1 µM, first compound 0.01 µM) 100% | viability, T/C (second compound 0.1 µM, first compound 0.0316 µM) 98.4% | viability, T/C (second compound 0.1 µM, first compound 0.1 µM) 86.9% | viability, T/C (second compound 0.1 µM, first compound 0.316 µM) 74.1% | viability, T/C (second compound 0.1 µM, first compound 1 µM) 70.5% | viability, T/C (second compound 0.316 µM, first compound 0.00316 µM) 104% | viability, T/C (second compound 0.316 µM, first compound 0.01 µM) 106% | viability, T/C (second compound 0.316 µM, first compound 0.0316 µM) 97.6% | viability, T/C (second compound 0.316 µM, first compound 0.1 µM) 89.6% | viability, T/C (second compound 0.316 µM, first compound 0.316 µM) 74.5% | viability, T/C (second compound 0.316 µM, first compound 1 µM) 67.4% | viability, T/C (second compound 1 µM, first compound 0.00316 µM) 107% | viability, T/C (second compound 1 µM, first compound 0.01 µM) 99.5% | viability, T/C (second compound 1 µM, first compound 0.0316 µM) 90.1% | viability, T/C (second compound 1 µM, first compound 0.1 µM) 82.8% | viability, T/C (second compound 1 µM, first compound 0.316 µM) 66.5% | viability, T/C (second compound 1 µM, first compound 1 µM) 59.2% | viability, T/C (second compound 3.16 µM, first compound 0.00316 µM) 90.4% | viability, T/C (second compound 3.16 µM, first compound 0.01 µM) 94.6% | viability, T/C (second compound 3.16 µM, first compound 0.0316 µM) 95.8% | viability, T/C (second compound 3.16 µM, first compound 0.1 µM) 75.6% | viability, T/C (second compound 3.16 µM, first compound 0.316 µM) 62.8% | viability, T/C (second compound 3.16 µM, first compound 1 µM) 53.6% | viability, T/C (second compound 10 µM, first compound 0.00316 µM) 85.7% | viability, T/C (second compound 10 µM, first compound 0.01 µM) 89.3% | viability, T/C (second compound 10 µM, first compound 0.0316 µM) 81.6% | viability, T/C (second compound 10 µM, first compound 0.1 µM) 69.8% | viability, T/C (second compound 10 µM, first compound 0.316 µM) 46.9% | viability, T/C (second compound 10 µM, first compound 1 µM) 31.9%
> 1000 nM: IC50 (second compound 0.0316 µM) | IC50 (second compound 0.1 µM) | IC50 (second compound 0.316 µM) | IC50 (second compound 1 µM) | IC50 (second compound 3.16 µM)
270 nM: IC50 (second compound 10 µM)
